Measured values from the NIST ThermoML archive (doi:10.1021/acs.jced.7b00836).
Numbers after ± are expanded uncertainties.

Details: Liquid, Closed cell (Static) method

SMILES	vapor or sublimation pressure (288.24 K) [kPa]	vapor or sublimation pressure (296.23 K) [kPa]	vapor or sublimation pressure (288.25 K) [kPa]	vapor or sublimation pressure (296.24 K) [kPa]
CCCCCC [hexane]	17 ± 4	21 ± 4		
CCCCC [pentane]			48 ± 4	66 ± 4
